Data from ChEMBL document CHEMBL4699627, “Synthesis and biological screening of thiosemicarbazones of substituted 3-acetylcoumarins having d-glucose moiety” (Bioorg Med Chem Lett, 2020).
pIC50: −log10 of the molar value. ≈ marks a conversion by molar mass, not a printed value.

Legend:
Aspergillus niger = assay: Antifungal activity against Aspergillus niger ATCC 439; assay type: functional
[1] = tested on: Staphylococcus epidermidis; assay: Antibacterial activity against Staphylococcus epidermidis ATCC 12228 assessed as reduction in bacterial growth; assay type: functional
Escherichia coli = assay: Antibacterial activity against Escherichia coli ATCC 25922 assessed as reduction in bacterial growth; assay type: functional
Saccharomyces cerevisiae = assay: Antifungal activity against Saccharomyces cerevisiae SH 20; assay type: functional
Candida albicans = assay: Antifungal activity against Candida albicans ATCC 7754; assay type: functional
Salmonella typhimurium = assay: Antibacterial activity against Salmonella typhimurium ATCC 14028 assessed as reduction in bacterial growth; assay type: functional, Salmonella enterica subsp. enterica serovar Typhimurium; details: Salmonella enterica
Staphylococcus aureus = assay: Antibacterial activity against Staphylococcus aureus ATCC 11632 assessed as reduction in bacterial growth; assay type: functional
Pseudomonas aeruginosa = assay: Antibacterial activity against Pseudomonas aeruginosa ATCC […] assessed as reduction in bacterial growth; assay type: functional
Klebsiella pneumoniae = assay: Antibacterial activity against Klebsiella pneumoniae ATCC 4352 assessed as reduction in bacterial growth; assay type: functional
Bacillus subtilis = assay: Antibacterial activity against Bacillus subtilis ATCC 11774 assessed as reduction in bacterial growth; assay type: functional
Aspergillus flavus = assay: Antifungal activity against Aspergillus flavus ATCC 204304; assay type: functional
PC-3 = assay: Cytotoxicity against human PC-3 cells incubated for 3 days by MTT assay; assay type: functional, cell-based; details: PC-3, 72 h
MDA-MB-231 = assay: Cytotoxicity against human MDA-MB-231 cells incubated for 3 days by MTT assay; assay type: functional, cell-based; details: MDA-MB-231, 72 h
[2] = tested on: Mycobacterium tuberculosis; assay: Antimycobacterial activity against Mycobacterium tuberculosis H37Ra ATCC 25177 assessed as growth inhibition incubated for 7 days measured after 48 hrs treatment with resazurin by alamarblue assay; assay type: functional; details: H37Ra ATCC 25177, 216 h, time 9 day
[3] = tested on: Mycobacterium tuberculosis; assay: Antimycobacterial activity against Mycobacterium tuberculosis H37Ra ATCC 25177 assessed as bacterial killing incubated for 4 weeks by CLSI standard plate count method; assay type: functional; details: H37Ra ATCC 25177, 672 h
Rhodesain = Rhodesain (Trypanosoma brucei rhodesiense, UniProt Q95PM0); assay: Inhibition of Trypanosoma brucei rhodesiense rhodesain using fluorogenic substrate Z-Phe-Arg-aminomethylcoumarin as substrate by fluorescence assay
Sequence of Rhodesain (Q95PM0 whole entry): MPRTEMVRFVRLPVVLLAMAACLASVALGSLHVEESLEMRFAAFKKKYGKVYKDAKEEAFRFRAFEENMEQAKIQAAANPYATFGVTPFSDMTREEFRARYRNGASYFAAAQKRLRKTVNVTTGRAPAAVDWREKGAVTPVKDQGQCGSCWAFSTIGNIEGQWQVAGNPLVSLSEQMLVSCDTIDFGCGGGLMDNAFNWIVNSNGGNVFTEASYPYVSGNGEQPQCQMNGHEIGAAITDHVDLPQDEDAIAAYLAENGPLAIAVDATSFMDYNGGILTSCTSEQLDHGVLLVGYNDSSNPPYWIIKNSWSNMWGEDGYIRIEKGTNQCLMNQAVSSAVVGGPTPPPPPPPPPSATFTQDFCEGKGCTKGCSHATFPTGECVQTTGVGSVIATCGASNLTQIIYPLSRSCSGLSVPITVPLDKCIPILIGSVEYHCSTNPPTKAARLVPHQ

| Compound | MIC (Aspergillus niger) [µM] | MIC [1] [µM] | MIC (Escherichia coli) [µM] | MIC (Saccharomyces cerevisiae) [µM] | MIC (Candida albicans) [µM] | MIC (Salmonella typhimurium) [µM] | MIC (Staphylococcus aureus) [µM] | MIC (Pseudomonas aeruginosa) [µM] | MIC (Klebsiella pneumoniae) [µM] | MIC (Bacillus subtilis) [µM] | MIC (Aspergillus flavus) [µM] | pIC50 (PC-3) | pIC50 (MDA-MB-231) | MIC [2] [mg/L] | MBC [3] [mg/L] | pIC50 (Rhodesain) |
| --- | --- | --- | --- | --- | --- | --- | --- | --- | --- | --- | --- | --- | --- | --- | --- | --- |
| CC(=O)OC[C@H]1O[C@@H](NC(=S)N/N=C(\C)c2cc3cc(C)ccc3oc2=O)[C@H](OC(C)=O)[C@@H](OC(C)=O)[C@@H]1OC(C)=O | 1.56 (≈ 0.945 µg/mL) | 50 (≈ 30.3 µg/mL) | 50 (≈ 30.3 µg/mL) | 25 (≈ 15.1 µg/mL) | 3.12 (≈ 1.89 µg/mL) | 25 (≈ 15.1 µg/mL) | 12.5 (≈ 7.57 µg/mL) | 12.5 (≈ 7.57 µg/mL) | 100 (≈ 60.6 µg/mL) |  |  |  |  |  |  |  |
| COc1cccc2cc(/C(C)=N/NC(=S)N[C@@H]3O[C@H](COC(C)=O)[C@@H](OC(C)=O)[C@H](OC(C)=O)[C@H]3OC(C)=O)c(=O)oc12 | 6.25 (≈ 3.89 µg/mL) | 3.12 (≈ 1.94 µg/mL) | 1.56 (≈ 0.97 µg/mL) | 50 (≈ 31.1 µg/mL) | 25 (≈ 15.5 µg/mL) |  | 50 (≈ 31.1 µg/mL) |  | 1.56 (≈ 0.97 µg/mL) | 50 (≈ 31.1 µg/mL) | 6.25 (≈ 3.89 µg/mL) |  |  |  |  |  |
| CC(=O)OC[C@H]1O[C@@H](NC(=S)N/N=C(\C)c2c(C)c3ccc(O)cc3oc2=O)[C@H](OC(C)=O)[C@@H](OC(C)=O)[C@@H]1OC(C)=O | 3.12 (≈ 1.94 µg/mL) | 1.56 (≈ 0.97 µg/mL) | 100 (≈ 62.2 µg/mL) | 0.78 (≈ 0.485 µg/mL) | > 100 | 3.12 (≈ 1.94 µg/mL) | 0.78 (≈ 0.485 µg/mL) | 12.5 (≈ 7.77 µg/mL) | 100 (≈ 62.2 µg/mL) | 100 (≈ 62.2 µg/mL) | 1.56 (≈ 0.97 µg/mL) |  |  |  |  |  |
| CC(=O)OC[C@H]1O[C@@H](NC(=S)N/N=C(\C)c2cc3ccc(C)cc3oc2=O)[C@H](OC(C)=O)[C@@H](OC(C)=O)[C@@H]1OC(C)=O | 25 (≈ 15.1 µg/mL) |  | 25 (≈ 15.1 µg/mL) | > 100 | 3.12 (≈ 1.89 µg/mL) |  | 1.56 (≈ 0.945 µg/mL) | 25 (≈ 15.1 µg/mL) | 25 (≈ 15.1 µg/mL) | 100 (≈ 60.6 µg/mL) | > 100 |  |  |  |  |  |
| CC(=O)OC[C@H]1O[C@@H](NC(=S)N/N=C(\C)c2c(C)c3ccccc3oc2=O)[C@H](OC(C)=O)[C@@H](OC(C)=O)[C@@H]1OC(C)=O | 12.5 (≈ 7.57 µg/mL) | 100 (≈ 60.6 µg/mL) |  | 12.5 (≈ 7.57 µg/mL) | 12.5 (≈ 7.57 µg/mL) |  | 25 (≈ 15.1 µg/mL) |  | 50 (≈ 30.3 µg/mL) | > 100 | 25 (≈ 15.1 µg/mL) |  |  |  |  |  |
| C/C(=N\NC(=S)NN[C@@H]1O[C@H](CO)[C@@H](O)[C@H](O)[C@H]1O)c1ccccn1 |  |  |  |  |  |  |  |  |  |  |  | 5.55 | 5.80 |  |  |  |
| CC(=O)OC[C@H]1O[C@@H](NC(=S)N/N=C(\C)c2cc3cccc([N+](=O)[O-])c3oc2=O)[C@H](OC(C)=O)[C@@H](OC(C)=O)[C@@H]1OC(C)=O | 3.12 (≈ 1.99 µg/mL) | 12.5 (≈ 7.96 µg/mL) | 25 (≈ 15.9 µg/mL) | 12.5 (≈ 7.96 µg/mL) | 0.78 (≈ 0.497 µg/mL) | > 100 | 0.78 (≈ 0.497 µg/mL) |  | 12.5 (≈ 7.96 µg/mL) | 12.5 (≈ 7.96 µg/mL) | 12.5 (≈ 7.96 µg/mL) |  |  |  |  |  |
| CC(=O)OC[C@H]1O[C@@H](NC(=S)N/N=C(\C)c2cc3cc(Cl)ccc3oc2=O)[C@H](OC(C)=O)[C@@H](OC(C)=O)[C@@H]1OC(C)=O | 100 (≈ 62.6 µg/mL) | > 100 | 25 (≈ 15.7 µg/mL) | 50 (≈ 31.3 µg/mL) | 1.56 (≈ 0.977 µg/mL) | 50 (≈ 31.3 µg/mL) | > 100 | 3.12 (≈ 1.96 µg/mL) |  |  | 12.5 (≈ 7.83 µg/mL) |  |  |  |  |  |
| CC(=O)OC[C@H]1O[C@@H](NC(=S)N/N=C(\C)c2cc3cc(Br)ccc3oc2=O)[C@H](OC(C)=O)[C@@H](OC(C)=O)[C@@H]1OC(C)=O |  | 3.12 (≈ 2.1 µg/mL) | 3.12 (≈ 2.1 µg/mL) | 25 (≈ 16.8 µg/mL) | 50 (≈ 33.5 µg/mL) | 25 (≈ 16.8 µg/mL) | 100 (≈ 67 µg/mL) | 3.12 (≈ 2.1 µg/mL) | 25 (≈ 16.8 µg/mL) |  | 6.25 (≈ 4.19 µg/mL) |  |  |  |  |  |
| CC(=O)OC[C@H]1O[C@@H](NC(=S)N/N=C(\C)c2cc3ccccc3oc2=O)[C@H](OC(C)=O)[C@@H](OC(C)=O)[C@@H]1OC(C)=O | > 100 | 12.5 (≈ 7.39 µg/mL) | 50 (≈ 29.6 µg/mL) | 50 (≈ 29.6 µg/mL) | 100 (≈ 59.2 µg/mL) | 100 (≈ 59.2 µg/mL) |  | 50 (≈ 29.6 µg/mL) | 100 (≈ 59.2 µg/mL) | > 100 | 25 (≈ 14.8 µg/mL) |  |  |  |  |  |
| CC(=O)OC[C@H]1O[C@@H](NC(=S)N/N=C(\C)c2cc3cc([N+](=O)[O-])ccc3oc2=O)[C@H](OC(C)=O)[C@@H](OC(C)=O)[C@@H]1OC(C)=O | 12.5 (≈ 7.96 µg/mL) | 12.5 (≈ 7.96 µg/mL) | 3.12 (≈ 1.99 µg/mL) | 25 (≈ 15.9 µg/mL) | 25 (≈ 15.9 µg/mL) | 100 (≈ 63.7 µg/mL) | 12.5 (≈ 7.96 µg/mL) | 1.56 (≈ 0.993 µg/mL) | 50 (≈ 31.8 µg/mL) | > 100 | 100 (≈ 63.7 µg/mL) |  |  |  |  |  |
| NC(=S)N/N=C/c1ccc(OC(=O)CC2SC(=O)NC2=O)cc1 (centres undefined) |  |  |  |  |  |  |  |  |  |  |  |  |  | 0.031 (≈ 0.088 µM) | 0.063 (≈ 0.179 µM) |  |
| COc1cc(C/C=N/NC(N)=S)ccc1O[C@@H]1O[C@H](COC(C)=O)[C@H](OC(C)=O)[C@H](OC(C)=O)[C@H]1OC(C)=O |  |  |  |  |  |  |  |  |  |  |  |  |  |  |  | 5.92 |
| O=C(O)c1cn(C2CC2)c2cc(N3CCNCC3)c(F)cc2c1=O [CIPROFLOXACIN] |  | 3.12 (≈ 1.04 µg/mL) | 1.56 (≈ 0.517 µg/mL) |  |  | 1.56 (≈ 0.517 µg/mL) | 3.12 (≈ 1.04 µg/mL) | 1.56 (≈ 0.517 µg/mL) | 1.56 (≈ 0.517 µg/mL) | 3.12 (≈ 1.04 µg/mL) |  |  |  |  |  |  |
| OC(Cn1cncn1)(Cn1cncn1)c1ccc(F)cc1F [FLUCONAZOLE] | 1.56 (≈ 0.478 µg/mL) |  |  | 0.78 (≈ 0.239 µg/mL) | 0.78 (≈ 0.239 µg/mL) |  |  |  |  |  | 0.78 (≈ 0.239 µg/mL) |  |  |  |  |  |
| O=c1[nH]cc(F)c(=O)[nH]1 [FLUOROURACIL] |  |  |  |  |  |  |  |  |  |  |  | 5.54 | 5.32 |  |  |  |
| Clc1ccc(COC(Cn2ccnc2)c2ccc(Cl)cc2Cl)c(Cl)c1 (centres undefined) [MICONAZOLE] | 1.56 (≈ 0.649 µg/mL) |  |  | 3.12 (≈ 1.3 µg/mL) | 3.12 (≈ 1.3 µg/mL) |  |  |  |  |  | 1.56 (≈ 0.649 µg/mL) |  |  |  |  |  |
| CN[C@H](CC(C)C)C(=O)N[C@H]1C(=O)N[C@@H](CC(N)=O)C(=O)N[C@H]2C(=O)N[C@H]3C(=O)N[C@H](C(=O)N[C@H](C(=O)O)c4cc(O)cc(O)c4-c4cc3ccc4O)[C@H](O)c3ccc(c(Cl)c3)Oc3cc2cc(c3O[C@@H]2O[C@H](CO)[C@@H](O)[C@H](O)[C@H]2O[C@H]2C[C@](C)(N)[C@H](O)[C@H](C)O2)Oc2ccc(cc2Cl)[C@H]1O [VANCOMYCIN] |  |  |  |  |  |  | 3.12 (≈ 4.53 µg/mL) |  |  | 1.56 (≈ 2.26 µg/mL) |  |  |  |  |  |  |
